For experiment [1], the system named is separation-induced vocalisations by guinea-pig pups. Briefly: animal or person. Particulars: Cavia porcellus, po, 4 h, read-out: guinea-pig vocalisation (4 hr. pre-treatment): ID50. The method, then: Male and female guinea-pigs pups are housed in family groups with their mothers and littermates throughout the study. Experiments are commenced after weaning when the pups are 2 weeks old. Before entering an experiment, the pups are screened to ensure that a vigorous vocalisation response is reproducibly elicited following maternal separation. The pups are placed individually in an observation cage (55 cm×39 cm×19 cm) in a room physically isolated from the home cage for 15 minutes and the duration of vocalisation during this baseline period is recorded. […] On test days each pup receives an oral dose or an s.c. or i.p. injection of test compound or vehicle and is then immediately returned to the home cage with its mother and siblings for 30 to 60 minutes (or for up to 4 hours following an oral dose, dependent upon the oral pharmacokinetics of the test compound) before social isolation for 15 minutes as described above. […] Between 6 and 8 animals receive each test compound at each dose tested.

The subject of experiment [2] is NK-1 receptor (foot tapping induced by NK-1 agonist GR73632). Briefly: Gerbil Foot-Tapping (Assay 2). The format is in vivo, Mongolian gerbil. The settings on record: Meriones unguiculatus, iv. The source says:
CNS-penetrant NK-1 receptor antagonists for use in the present invention can be identified by their ability to inhibit foot tapping in gerbils induced by anxiogenic agents (such as pentagastrin) or central infusion of NK-1 receptor agonists such as GR73632, or caused by aversive stimulation such as foot shock or single housing, based on the method of Rupniak & Williams, Eur. J. Pharmacol., 1994, 265, 179.
Male or female Mongolian gerbils (35-70 g) are anaesthetised by inhalation of an isoflurane/oxygen mixture to permit exposure of the jugular vein in order to permit administration of test compounds or vehicle in an injection volume of 5 ml/kg i.v. Alternatively, test compounds may be administered orally or by subcutaneous or intraperitoneal routes. A skin incision is then made in the midline of the scalp to expose the skull.

Where two headings read alike, the source gives them in different places.

For `C[C@@H](O[C@H]1OCCN(Cc2n[nH]c(=O)[nH]2)[C@H]1c1ccc(F)cc1)c1cc(C(F)(F)F)cc(C(F)(F)F)c1` [2-(R)-(1-(R)-(3,5-bis(trifluoromethyl)phenyl)-ethoxy)-3-(S)-(4-fluorophenyl)-4-(3-(5-oxo-1H, 4H-1,2,4-triazolo)methyl)-morpholine], the ED50 amounted to 0.73 mg/kg in experiment [1]; 0.36 mg/kg in experiment [2] (5 min, i.v. immediately prior to GR73632 challenge, read-out: gerbil foot-tapping (5 mins.): ID50); 0.33 mg/kg in experiment [2] (24 hrs., i.v. 24 hours prior to central NK1 agonist challenge, read-out: gerbil foot-tapping (24 hrs.): ID50).

(Values after patent publication US5925627A, “Use of NK-1 receptor antagonists for treating movement disorders” (Merck Sharp & Dohme Ltd., priority 1996, dated 1999).)
